Measured values published in ChEMBL document CHEMBL5038643, “Phytochemical Investigation of the Roots of Ipomoea asarifolia and Antiproliferative Activity of the Isolated Compounds against Multiple Myeloma Cells” (J Nat Prod, 2022).
Active and inactive are the calls of the source. The calls are words filed in the database; no cut-off is given here.

Tests used:
MM.1R = test: Antiproliferative activity against dexamethasone-resistant human MM.1R cells assessed as reduction in cell viability at 10 uM measured after 72 hrs by XTT assay; type: functional, cell-based
RPMI-8226 [1] = test: Antiproliferative activity against human RPMI 8226 cells assessed as reduction in cell viability measured after 72 hrs by XTT assay; type: functional, cell-based; conditions: RPMI-8226, 72 h
MM1.S [2] = test: Antiproliferative activity against dexamethasone-sensitive human MM.1S cells assessed as reduction in cell viability at 10 uM measured after 72 hrs by XTT assay; type: functional, cell-based
[3] = Antiproliferative activity against dexamethasone-resistant human MM.1R cells assessed as reduction in cell viability measured after 72 hrs by XTT assay; type: functional, cell-based
B-cell = test: Cytotoxicity against human B lymphocyte assessed as reduction in cell viability at 50 uM measured after 72 hrs by XTT assay; type: toxicity, cell-based
MM1.S [4] = test: Antiproliferative activity against dexamethasone-sensitive human MM.1S cells assessed as reduction in cell viability measured after 72 hrs by XTT assay; type: functional, cell-based
RPMI-8226 [5] = test: Antiproliferative activity against human RPMI 8226 cells assessed as reduction in cell viability at 10 uM measured after 72 hrs by XTT assay; type: functional, cell-based

SMILES | IC50 (RPMI-8226 [1]) [µM] | IC50 (MM1.S [4]) [µM] | Activity (MM.1R) | Activity (MM1.S [2]) | IC50 [3] [µM] | Activity (B-cell) | Activity (RPMI-8226 [5])
CCCCCCCCCC(=O)O[C@H]1[C@H](O[C@@H]2[C@H]3OC(=O)CCCCCCCCC[C@H](CCCCC)O[C@@H]4O[C@H](C)[C@H](O)[C@H](O)[C@H]4O[C@H](O[C@H]2C)[C@@H]3O)O[C@@H](C)[C@H](O[C@@H]2O[C@@H](C)[C@H](OC(=O)[C@@H](C)CC)[C@@H](OC(=O)/C=C/c3ccccc3)[C@H]2O)[C@H]1O[C@@H]1O[C@@H](C)[C@H](O)[C@@H](O)[C@H]1O [PESCAPREIN XXIII] | > 10 | – | inactive | inactive | – | – | –
CCCCCCCCCCCC(=O)O[C@H]1[C@H](O[C@@H]2[C@H]3OC(=O)CCCCCCCCC[C@H](CCCCC)O[C@@H]4O[C@H](C)[C@H](O)[C@H](O)[C@H]4O[C@H](O[C@H]2C)[C@@H]3O)O[C@@H](C)[C@H](O[C@@H]2O[C@@H](C)[C@H](OC(=O)C(C)C)[C@@H](OC(=O)/C=C/c3ccccc3)[C@H]2O)[C@H]1O[C@@H]1O[C@@H](C)[C@H](O)[C@@H](O)[C@H]1O [PESCAPREIN XXV] | > 10 | – | inactive | inactive | – | – | –
CCCCCCCCCCCC(=O)O[C@H]1[C@H](O[C@@H]2[C@H]3OC(=O)CCCCCCCCC[C@H](CCCCC)O[C@@H]4O[C@H](C)[C@H](O)[C@H](O)[C@H]4O[C@H](O[C@H]2C)[C@@H]3O)O[C@@H](C)[C@H](O[C@@H]2O[C@@H](C)[C@H](OC(=O)CCCCCCC)[C@@H](O)[C@H]2O)[C@H]1O[C@@H]1O[C@@H](C)[C@H](O)[C@@H](O)[C@H]1O | > 10 | – | inactive | inactive | – | – | inactive
CCCCCCCCCCCCCCCCCCCCOC(=O)/C=C/c1ccc(O)cc1 | – | – | inactive | inactive | – | – | –
C[C@H](CO)CC(=O)C[C@@H](C)CCC(=O)c1ccoc1 | > 10 | – | inactive | inactive | – | – | –
CCCCCCCCCCCCCCCCCCOC(=O)/C=C/c1ccc(O)cc1 | – | – | inactive | inactive | – | – | –
CCCCCCCCCCCCCCCCOC(=O)/C=C/c1ccc(O)cc1 | – | – | inactive | inactive | – | – | –

Second part, led by results:

IC50 (RPMI-8226 [1]) [µM] | IC50 (MM1.S [4]) [µM] | SMILES | Activity (MM.1R) | Activity (MM1.S [2]) | IC50 [3] [µM] | Activity (B-cell) | Activity (RPMI-8226 [5])
> 10 | – | CCCCCCCCCCCC(=O)O[C@H]1[C@H](O[C@@H]2[C@H]3OC(=O)CCCCCCCCC[C@H](CCCCC)O[C@@H]4O[C@H](C)[C@H](O)[C@H](O)[C@H]4O[C@H](O[C@H]2C)[C@@H]3O)O[C@@H](C)[C@H](O[C@@H]2O[C@@H](C)[C@H](OC(=O)[C@@H](C)CC)[C@@H](O)[C@H]2O)[C@H]1O[C@@H]1O[C@@H](C)[C@H](O)[C@@H](O)[C@H]1O [PESCAPREIN III] | inactive | inactive | – | – | –
3 | > 10 | CCCCCCCCCCCCCCCCOC(=O)/C=C/c1ccc(O)c(O)c1 | inactive | inactive | > 10 | Non-Toxic | –
9.4 | > 10 | CCCCCCCCCCCCCCCCCCOC(=O)/C=C/c1ccc(O)c(O)c1 | inactive | inactive | > 10 | Non-Toxic | –
> 10 | – | CCCCCCCCCCCC(=O)O[C@H]1[C@H](O[C@@H]2[C@H]3OC(=O)CCCCCCCCC[C@H](CCCCC)O[C@@H]4O[C@H](C)[C@H](O)[C@H](O)[C@H]4O[C@H](O[C@H]2C)[C@@H]3O)O[C@@H](C)[C@H](O[C@@H]2O[C@@H](C)[C@H](OC(=O)[C@@H](C)CC)[C@@H](OC(=O)/C=C/c3ccccc3)[C@H]2O)[C@H]1O[C@@H]1O[C@@H](C)[C@H](O)[C@@H](O)[C@H]1O [PESCAPREIN XXI] | inactive | inactive | – | – | –
> 10 | – | CCCCCCCCCC(=O)O[C@H]1[C@H](O[C@@H]2[C@H]3OC(=O)CCCCCCCCC[C@H](CCCCC)O[C@@H]4O[C@H](C)[C@H](O)[C@H](O)[C@H]4O[C@H](O[C@H]2C)[C@@H]3O)O[C@@H](C)[C@H](O[C@@H]2O[C@@H](C)[C@H](OC(=O)C(C)C)[C@@H](OC(=O)/C=C/c3ccccc3)[C@H]2O)[C@H]1O[C@@H]1O[C@@H](C)[C@H](O)[C@@H](O)[C@H]1O [PESCAPREIN XXVI] | inactive | inactive | – | – | –
7.7 | > 10 | CCCCCCCCCC(=O)O[C@H]1[C@H](O[C@@H]2[C@H]3OC(=O)CCCCCCCCC[C@H](CCCCC)O[C@@H]4O[C@H](C)[C@H](O)[C@H](O)[C@H]4O[C@H](O[C@H]2C)[C@@H]3O)O[C@@H](C)[C@H](O[C@@H]2O[C@@H](C)[C@H](OC(=O)[C@@H](C)CC)[C@@H](O)[C@H]2O)[C@H]1O[C@@H]1O[C@@H](C)[C@H](O)[C@@H](O)[C@H]1O [STOLONIFERIN III] | inactive | inactive | > 10 | – | –
10.8 | > 10 | CCCCCCCCCCCC(=O)O[C@H]1[C@H](O[C@@H]2[C@H]3OC(=O)CCCCCCCCC[C@H](CCCCC)O[C@@H]4O[C@H](C)[C@H](O)[C@H](O)[C@H]4O[C@H](O[C@H]2C)[C@@H]3O)O[C@@H](C)[C@H](O[C@@H]2O[C@@H](C)[C@H](OC(=O)CCCCC)[C@@H](O)[C@H]2O)[C@H]1O[C@@H]1O[C@@H](C)[C@H](O)[C@@H](O)[C@H]1O [PESCAPREIN IV] | inactive | inactive | > 10 | – | –
0.0045 | 0.0026 | CC(C)C[C@H](NC(=O)[C@H](Cc1ccccc1)NC(=O)c1cnccn1)B(O)O [BORTEZOMIB] | inactive | inactive | 0.0048 | – | –
